Legend:
Type in all cases: in vivo
[1] = test system: windgrass (Apera spica-venti); assay: Test D pre-/postemergence: windgrass
Text: (§1) Seeds of plant species selected from bluegrass (annual bluegrass, Poa annua), blackgrass (Alopecurus myosuroides), canarygrass (Phalaris minor), chickweed (common chickweed, Stellaria media), galium (catchweed bedstraw, Galium aparine), bromegrass, downy (downy bromegrass, Bromus tectorum), field poppy (Papaver rhoeas), field violet (Viola arvensis), foxtail, green (green foxtail, Setaria viridis), deadnettle (henbit deadnettle, Lamium amplexicaule), ryegrass, Italian (Italian ryegrass, Lolium multiflorum), kochia (Kochia scoparia), lambsquarters (Chenopodium album), oilseed rape (Brassica napus), pigweed (Amaranthus retroflexus), Russian thistle (Salsola iberica), chamomile (scentless chamomile, Matricaria inodora), speedwell (bird's-eye speedwell, Veronica persica), barley, spring (spring barley, Hordeum vulgare), wheat, spring (spring wheat, Triticum aestivum), buckwheat, wild (wild buckwheat, Polygonum convolvulus), mustard, wild (wild mustard, Sinapis arvensis), oat, wild (wild oat, Avena fatua), radish, wild (wild radish, Raphanus raphanistrum), windgrass (Apera spica-venti), barley, winter (winter barley, Hordeum vulgare), and wheat, winter (winter wheat, Triticum aestivum) were planted into a silt loam soil and treated preemergence with test chemicals formulated in a non-phytotoxic solvent mixture which included a surfactant. At the same time, these same crop and weed species were planted in pots containing the planting medium comprising spaghnum peat moss, vermiculite, wetting agent and starter nutrients and treated with postemergence applications of the test chemicals formulated in the same manner. Plants ranged in height from 2 to 18 cm (1- to 4-leaf stage).
(§2) Treated plants and controls were maintained in a controlled growth environment for 14 to 21 days after which time all species were compared to controls and visually evaluated. Plant response ratings, summarized in Table D, are based on a scale of 0 to 100 where 0 is no effect and 100 is complete control. A dash (-) response means no test result.

[2] = test system: blackgrass (Alopecurus myosuroides); assay: Test D pre-/postemergence: blackgrass
Text: as §1, §2

[3] = test system: nightshade (eastern black nightshade, Solanum ptycanthum); assay: Test C pre-/postemergence: nightshade; conditions: Preemergence
Method in brief: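 Visual injury scored 0–100 (100 = complete control) against untreated controls after 13–15 greenhouse days. Surfactant-containing solvent formulations applied either to soil after sowing (loam/sand) or over 1- to 4-leaf plants, 2–18 cm tall.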

[4] = test system: oat, wild (wild oat, Avena fatua); assay: Test D pre-/postemergence: oat, wild
Text: as §1, §2

[5] = test system: foxtail, green (green foxtail, Setaria viridis); assay: Test C pre-/postemergence: foxtail, green
Text: Seeds of plant species selected from blackgrass (Alopecurus myosuroides), bromegrass, downy (downy bromegrass, Bromus tectorum), foxtail, green (green foxtail, Setaria viridis), ryegrass, Italian (Italian ryegrass, Lolium multiflorum), winter wheat (Triticum aestivum), wild oat (Avena fatua), galium (catchweed bedstraw, Galium aparine), bermudagrass (Cynodon dactylon), surinam grass (Brachiaria decumbens), cocklebur (common cocklebur, Xanthium strumarium), corn (Zea mays), large crabgrass (Digitaria sanguinalis), woolly cupgrass (Eriochloa villosa), foxtail, giant (giant foxtail, Setaria faberii), goosegrass (Eleusine indica), johnsongrass (Sorghum halepense), kochia (Kochia scoparia), lambsquarters (Chenopodium album), morningglory (Ipomoea coccinea), nightshade (eastern black nightshade, Solanum ptycanthum), nutsedge, yellow (yellow nutsedge, Cyperus esculentus), pigweed (Amaranthus retroflexus), ragweed (common ragweed, Ambrosia elation), soybean (Glycine max), common (oilseed) sunflower (Helianthus annuus), Russian thistle (Salsola kali) and velvetleaf (Abutilon theophrasti) were planted into a blend of loam soil and sand and treated preemergence with test chemicals formulated in a non-phytotoxic solvent mixture which included a surfactant.
At the same time, plants selected from these crop and weed species and also barley (winter barley, Hordeum vulgare), canarygrass (Phalaris minor), chickweed (common chickweed, Stellaria media) windgrass (Apera spica-venti) and deadnettle (henbit deadnettle, Lamium amplexicaule) were planted in pots containing Redi-Earth® planting medium (Scotts Company, 14111 Scottslawn Road, Marysville, Ohio 43041) comprising spaghnum peat moss, vermiculite, wetting agent and starter nutrients and treated with postemergence applications of test chemicals formulated in the same manner. Plants ranged in height from 2 to 18 cm (1- to 4-leaf stage) for postemergence treatments.
as §2, with “greenhouse” for “controlled growth environment”, “13” for “14”, “15 days,” for “21 days”, “C,” for “D,”

[6] = test system: bromegrass, downy (downy bromegrass, Bromus tectorum); assay: Test D pre-/postemergence: bromegrass, downy
Text: as §1, §2

[7] = test system: barley, spring (spring barley, Hordeum vulgare); assay: Test D pre-/postemergence: barley, spring
Method in brief: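 Applied as a non-phytotoxic solvent formulation with surfactant, compounds were tested preemergence in silt loam and postemergence on seedlings 2 to 18 cm high in peat-vermiculite medium. Evaluation was visual, 0 meaning no effect and 100 complete control, at 14 to 21 days.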

[8] = test system: barnyardgrass (Echinochloa crus-galli); assay: Test B flooded paddy: barnyardgrass; conditions: Flood; 250 g ai/ha; applied to paddy water at 2-leaf stage; visually evaluated after 13 to 15 days
Method in brief: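 Greenhouse assay lasting 13 to 15 days. Treatment was into water flooding pots 3 cm deep, at the 2-leaf stage, with that level sustained afterwards. Scores compare treated with control plants visually, 100 denoting complete control and 0 no effect; a dash marks no test result.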

[9] = Postemergence, 31 g ai/ha, scale 0 to 100 (0 no effect, 100 complete control)
[10] = Postemergence, 62 g ai/ha, scale 0 to 100 (0 no effect, 100 complete control)
[11] = Postemergence, 125 g ai/ha, scale 0 to 100, 0 no effect, 100 complete control
[12] = Postemergence, 250 g ai/ha, scale 0 to 100 (0 no effect, 100 complete control)
[13] = Postemergence, 16 g ai/ha, scale 0 to 100
[14] = Preemergence, 16 g ai/ha, scale 0 to 100 (0 no effect, 100 complete control)
[15] = Preemergence, 31 g ai/ha, scale 0 to 100 (0 no effect, 100 complete control)
[16] = Preemergence, 62 g ai/ha, scale 0 to 100
[17] = Preemergence, 125 g ai/ha, scale 0 to 100
[18] = Preemergence, 250 g ai/ha, scale 0 to 100
[19] = 31 g ai/ha, scale of 0 to 100, 0 is no effect, 100 is complete control
[20] = 62 g ai/ha, scale of 0 to 100, 0 is no effect, 100 is complete control
[21] = 125 g ai/ha, scale 0 to 100, 0 no effect, 100 complete control
[22] = 250 g ai/ha, scale 0 to 100, 0 no effect, 100 complete control
[23] = Postemergence, 250 g ai/ha, scale 0 to 100
[24] = Preemergence, 31 g ai/ha, scale of 0 to 100, 0 is no effect, 100 is complete control
[25] = Preemergence, 62 g ai/ha, scale of 0 to 100, 0 is no effect, 100 is complete control
[26] = Preemergence, 125 g ai/ha, scale 0 to 100, 0 no effect, 100 complete control
[27] = Preemergence, 250 g ai/ha, scale 0 to 100, 0 no effect, 100 complete control
[28] = Postemergence, 8 g ai/ha, scale 0 to 100

## Cc1nn(-c2ccc(F)cc2)nc1Oc1ccnc(C(F)(F)F)c1 [Compound 129, 4-[[2-(4-fluorophenyl)-5-methyl-2H-1,2,3-triazol-4-yl]oxy]-2-(trifluoromethyl)pyridine]
[1]; [9]
  Plant response rating: Windgrass: 20
[1]; [10]
  Plant response rating: Windgrass: 30
[1]; [11]
  Plant response rating: Windgrass: 70
[1]; [12]
  Plant response rating: Windgrass: 95
[1]; [13]
  Plant response rating, Windgrass: 15
[1]; [14]
  Plant response rating, Windgrass: 0
[1]; [15]
  Plant response rating, Windgrass: 0
[1]; [16]
  Plant response rating, Windgrass: 10
[1]; [17]
  Plant response rating, Windgrass: 75
[1]; [18]
  Plant response rating, Windgrass: 100
[2]; [9]
  Plant response rating: Blackgrass: 10
[2]; [10]
  Plant response rating: Blackgrass: 10
[2]; [11]
  Plant response rating: Blackgrass: 50
[2]; [12]
  Plant response rating: Blackgrass: 70
[2]; [13]
  Plant response rating, Blackgrass: 5
[2]; [14]
  Plant response rating, Blackgrass: 0
[2]; [15]
  Plant response rating, Blackgrass: 0
[2]; [16]
  Plant response rating, Blackgrass: 30
[2]; [17]
  Plant response rating, Blackgrass: 100
[2]; [18]
  Plant response rating, Blackgrass: 100
[3]; [19]
  Plant response rating, Nightshade: 85
[3]; [20]
  Plant response rating, Nightshade: 90
[3]; [21]
  Plant response rating, Nightshade: 90
[3]; [22]
  Plant response rating, Nightshade: 95
[4]; [9]
  Plant response rating: Oat, Wild: 10
[4]; [10]
  Plant response rating: Oat, Wild: 10
[4]; [11]
  Plant response rating: Oat, Wild: 20
[4]; [12]
  Plant response rating: Oat, Wild: 25
[4]; [13]
  Plant response rating, Oat, Wild: 10
[4]; [14]
  Plant response rating, Oat, Wild: 0
[4]; [15]
  Plant response rating, Oat, Wild: 0
[4]; [16]
  Plant response rating, Oat, Wild: 5
[4]; [17]
  Plant response rating, Oat, Wild: 55
[4]; [18]
  Plant response rating, Oat, Wild: 100
[5]; [9]
  Plant response rating, Foxtail, Green: 85
[5]; [10]
  Plant response rating, Foxtail, Green: 95
[5]; [11]
  Plant response rating, Foxtail, Green: 95
[5]; [23]
  Plant response rating, Foxtail, Green: 95
[5]; [24]
  Plant response rating, Foxtail, Green: 90
[5]; [25]
  Plant response rating, Foxtail, Green: 90
[5]; [26]
  Plant response rating, Foxtail, Green: 90
[5]; [27]
  Plant response rating, Foxtail, Green: 90
[6]; [9]
  Plant response rating: Bromegrass, Downy: 10
[6]; [10]
  Plant response rating: Bromegrass, Downy: 20
[6]; [11]
  Plant response rating: Bromegrass, Downy: 30
[6]; [12]
  Plant response rating: Bromegrass, Downy: 30
[6]; [13]
  Plant response rating, Bromegrass, Downy: 10
[6]; [14]
  Plant response rating, Bromegrass, Downy: 0
[6]; [15]
  Plant response rating, Bromegrass, Downy: 10
[6]; [16]
  Plant response rating, Bromegrass, Downy: 10
[6]; [17]
  Plant response rating, Bromegrass, Downy: 20
[6]; [18]
  Plant response rating, Bromegrass, Downy: 30
[7]; [9]
  Plant response rating: Barley, Spring: 5
[7]; [10]
  Plant response rating: Barley, Spring: 5
[7]; [11]
  Plant response rating: Barley, Spring: 10
[7]; [12]
  Plant response rating: Barley, Spring: 10
[7]; [13]
  Plant response rating, Barley, Spring: 5
[7]; [14]
  Plant response rating, Barley, Spring: 0
[7]; [15]
  Plant response rating, Barley, Spring: 0
[7]; [16]
  Plant response rating, Barley, Spring: 5
[7]; [17]
  Plant response rating, Barley, Spring: 15
[7]; [18]
  Plant response rating, Barley, Spring: 20

## Fc1ccc(-n2nc(Cc3ccnc(C(F)(F)F)c3)c(OCC(F)(F)F)n2)cc1 [Compound 142]
[3]; [19]
  Plant response rating, Nightshade: 95
[3]; [20]
  Plant response rating, Nightshade: 95
[3]; [21]
  Plant response rating, Nightshade: 98
[3]; [22]
  Plant response rating, Nightshade: 98
[8]
  Plant response rating, Barnyardgrass (0 to 100 scale, 0 is no effect, 100 is complete control): 70
[5]; [9]
  Plant response rating, Foxtail, Green: 100
[5]; [10]
  Plant response rating, Foxtail, Green: 100
[5]; [11]
  Plant response rating, Foxtail, Green: 100
[5]; [23]
  Plant response rating, Foxtail, Green: 100
[5]; [24]
  Plant response rating, Foxtail, Green: 90
[5]; [25]
  Plant response rating, Foxtail, Green: 90
[5]; [26]
  Plant response rating, Foxtail, Green: 90
[5]; [27]
  Plant response rating, Foxtail, Green: 90

## Cc1nn(-c2ccc(F)c(F)c2)nc1Oc1ccnc(C(F)(F)F)c1 [Compound 145]
[1]; [10]
  Plant response rating: Windgrass: 60
[1]; [11]
  Plant response rating: Windgrass: 80
[1]; [28]
  Plant response rating, Windgrass: 5
[1]; [13]
  Plant response rating, Windgrass: 10
[1]; Postemergence, 31 g ai/ha, scale 0 to 100
  Plant response rating, Windgrass: 35
[2]; [9]
  Plant response rating: Blackgrass: 20
[2]; [10]
  Plant response rating: Blackgrass: 25
[2]; [11]
  Plant response rating: Blackgrass: 30
[2]; [28]
  Plant response rating, Blackgrass: 5
[2]; [13]
  Plant response rating, Blackgrass: 20
[3]; [19]
  Plant response rating, Nightshade: 35
[3]; [20]
  Plant response rating, Nightshade: 80
[3]; [21]
  Plant response rating, Nightshade: 85
[3]; [22]
  Plant response rating, Nightshade: 90
[4]; [9]
  Plant response rating: Oat, Wild: 20
[4]; [10]
  Plant response rating: Oat, Wild: 30
[4]; [11]
  Plant response rating: Oat, Wild: 35
[4]; [28]
  Plant response rating, Oat, Wild: 10
[4]; [13]
  Plant response rating, Oat, Wild: 10
[8]
  Plant response rating, Barnyardgrass (0 to 100 scale, 0 is no effect, 100 is complete control): 90
[5]; [9]
  Plant response rating, Foxtail, Green: 98
[5]; [10]
  Plant response rating, Foxtail, Green: 100
[5]; [11]
  Plant response rating, Foxtail, Green: 100
[5]; [23]
  Plant response rating, Foxtail, Green: 100
[5]; [24]
  Plant response rating, Foxtail, Green: 90
[5]; [25]
  Plant response rating, Foxtail, Green: 90
[5]; [26]
  Plant response rating, Foxtail, Green: 90
[5]; [27]
  Plant response rating, Foxtail, Green: 90
[6]; [9]
  Plant response rating: Bromegrass, Downy: 5
[6]; [10]
  Plant response rating: Bromegrass, Downy: 10
[6]; [11]
  Plant response rating: Bromegrass, Downy: 10
[6]; [28]
  Plant response rating, Bromegrass, Downy: 5
[6]; [13]
  Plant response rating, Bromegrass, Downy: 5
[7]; [9]
  Plant response rating: Barley, Spring: 10
[7]; [10]
  Plant response rating: Barley, Spring: 15
[7]; [11]
  Plant response rating: Barley, Spring: 20
[7]; [28]
  Plant response rating, Barley, Spring: 5
[7]; [13]
  Plant response rating, Barley, Spring: 10

— US9302999B2, “Substituted triazoles as herbicides” (E. I. DU PONT DE NEMOURS AND COMPANY, priority 2012, dated 2016)
